# Reference: patent US20240277705A1, “DOSAGE REGIMENS FOR ECUBECTEDIN” (PHARMA MAR S.A., priority 2021, published 2024)
# Tested on: patients with advanced solid tumors
# Experiment: Phase I dose-escalating study, safety and dose limiting toxicities
# Assay type: in vivo
# Settings: for maximum tolerated dose: 3-hour i.v. infusion
# Excerpt: Primary Study Objectives • Dose escalation phase: To identify the dose limiting toxicities (DLTs), and to determine the maximum tolerated dose (MTD) and the recommended dose (RD) of PM14 administered intravenously (i.v.) on two days (Day 1 and Day 8) or on Day 1 only, both every three weeks (q3wk) over three hours to patients with advanced solid tumors.
# First-in-human, open-label, dose-finding, phase I trial, using a classical 3+3 design followed by a continual reassessment method (CRM) (see Dose Escalation Schedule, below).
# Patients will be included in cohorts of a minimum of three or six patients to receive PM14 at successively increasing dose levels, starting at 0.25 mg/m2 for the Days 1 and 8 schedule. For the Day 1 schedule, the starting dose will be 4.5 mg/m^2.
# Open-label, dose-escalating, phase I trial of PM14 administered as a 3-hour infusion i.v. every 3 weeks (q3wk) in human patients (pts) with advanced solid tumors, adequate organ function and ECOG PS score of 0-1. Two schedules were explored: Schedule A (Day 1 [D1], Day 8 [D8]) and Schedule B (D1).
# Determination of MTD and RD: the MTD will be the lowest dose level explored during dose escalation in which one third or more of evaluable patients develop a DLT in Cycle 1. The CRM could be used to define the RD.
# Secondary Endpoints • Safety: patients will be evaluable for safety if they have received at least one partial infusion of PM14. AEs will be graded according to the NCI-CTCAE v.4. Additionally, treatment-related discontinuations and treatment compliance (dose reduction, skipped doses and/or treatment delays due to AEs), will be described. • Pharmacokinetics: PK analyses will be evaluated in plasma and urine by standard non-compartmental analysis (compartmental modeling may be performed if appropriate). Plasma samples for PM14 PK analysis will be obtained in Cycle 1 from all patients, and also in Cycle 2 from patients treated during Step D of the CRM. In addition, the urine produced during Day 1 of Cycle 1 and Cycle 2 will be collected from patients treated during Step D of the CRM. • Pharmacogenetics: the presence or absence of PGt polymorphisms in genes relevant for PM14 disposition (distribution, metabolism and excretion) from a single blood sample collected at any time during the trial (but preferably at the same time as the pre-treatment PK sample on Day 1 of Cycle 1) will be assessed to explain individual variability in main PK parameters. • Pharmacogenomics: this exploratory analysis will be performed in those patients who sign the Informed Consent Form (ICF) for the PGx study. mRNA or protein expression levels of factors involved in DNA repair mechanisms, or related to the mechanism of action of PM14, will be evaluated from available tumor tissue samples obtained at diagnosis or relapse and in cell-free ctDNA. Their mutational status might also be analyzed, if relevant. Their correlation with the clinical response and outcome after treatment will be assessed. • Efficacy: patients will be evaluable for efficacy if they receive at least one complete infusion of PM14 and have at least one clinical or radiological tumor assessment as per RECIST v.1.1 or serum markers, or if they are considered to have failed treatment. Treatment failure will be defined as clinical deterioration, death due to PD or treatment discontinuation due to any treatment-related toxicity before any appropriate tumor assessments have been performed. […]
# [1] = Schedule A D1,D8, 3.0 mg/m^2 (n: 9)
# [2] = Schedule A D1,D8, <3.0 mg/m^2 (n: 14)
# [3] = Schedule A D1,D8, >3.0 mg/m^2 (n: 5)
# [4] = Schedule B D1, 4.5 mg/m^2 (n: 6)
# [5] = Schedule B D1, 5.6 mg/m^2 (n: 3)
structure (smiles),measurement,setting,value
"COc1c(C)cc2c(c1O)[C@@H]1[C@@H]3[C@@H]4SC[C@]5(N[C@H](CO)Cc6c5[nH]c5ccccc65)C(=O)OC[C@@H](c5c6c(c(C)c(OC(C)=O)c54)OCO6)N3[C@@H](O)[C@H](C2)N1C [PM14, ECUBECTEDIN]",DLTs at the RDs,"3.0 mg/n^2 D1,D8 (A) and 4.5 mg/n^2 D1 (B)",No DL-Ts
same,maximum tolerated dose,"Schedule A (D1, D8 q3wk)",4.5 mg/m^2
same,"ALT increase Gr 1-2, (%)",[1],(55.6%)
same,"ALT increase Gr 3, (%)",[1],(11.1%)
same,"AST increase Gr 1-2, (%)",[1],(77.8%)
same,"Anemia Gr 1-2, (%)",[1],(77.8%)
same,"Anemia Gr 3, (%)",[1],(11.1%)
same,"CPK increase Gr 1-2, (%)",[1],(22.2%)
same,"Diarrhoea Gr 1-2, (%)",[1],(11.1%)
same,"Nausea Gr 1-2, (%)",[1],(11.1%)
same,"Neutropenia Gr 1-2, (%)",[1],(11.1%)
same,"Neutropenia Gr 3, (%)",[1],(11.1%)
same,"Neutropenia Gr 4, (%)",[1],(11.1%)
same,"Vomiting Gr 1-2, (%)",[1],(11.1%)
same,"Vomiting Gr 3, (%)",[1],(11.1%)
same,"ALT increase Gr 1-2, (%)",[2],(35.7%)
same,"AST increase Gr 1-2, (%)",[2],(21.4%)
same,"Anemia Gr 1-2, (%)",[2],(85.7%)
same,"CPK increase Gr 1-2, (%)",[2],(42.9%)
same,"Constipation Gr 1-2, (%)",[2],(7.1%)
same,"Decreased appetite Gr 1-2, (%)",[2],(7.1%)
same,"Diarrhoea Gr 1-2, (%)",[2],(14.3%)
same,"Fatigue Gr 1-2, (%)",[2],(28.6%)
same,"Nausea Gr 1-2, (%)",[2],(42.9%)
same,"Neutropenia Gr 1-2, (%)",[2],(14.3%)
same,"Vomiting Gr 1-2, (%)",[2],(42.9%)
same,"ALT increase Gr 1-2, (%)",[3],(60.0%)
same,"ALT increase Gr 3, (%)",[3],(40.0%)
same,"AST increase Gr 1-2, (%)",[3],(100.0%)
same,"Anemia Gr 1-2, (%)",[3],(80.0%)
same,"Anemia Gr 3, (%)",[3],(20.0%)
same,"Constipation Gr 1-2, (%)",[3],(60.0%)
same,"Decreased appetite Gr 1-2, (%)",[3],(40.0%)
same,"Diarrhoea Gr 1-2, (%)",[3],(20.0%)
same,"Fatigue Gr 1-2, (%)",[3],(40.0%)
same,"Fatigue Gr 3, (%)",[3],(20.0%)
same,"Nausea Gr 1-2, (%)",[3],(80.0%)
same,"Neutropenia Gr 1-2, (%)",[3],(20.0%)
same,"Neutropenia Gr 4, (%)",[3],(40.0%)
same,"Vomiting Gr 1-2, (%)",[3],(60.0%)
same,recommended dose (RD),"Schedule A, on D1,D8",3.0 mg/n^2
same,maximum tolerated dose,Schedule B (D1 q3wk),5.6 mg/rn^2
same,"ALT increase Gr 1-2, (%)",[4],(66.7%)
same,"ALT increase Gr 3, (%)",[4],(33.3%)
same,"AST increase Gr 1-2, (%)",[4],(50.0%)
same,"AST increase Gr 4, (%)",[4],(16.1%)
same,"Anemia Gr 1-2, (%)",[4],(83.3%)
same,"CPK increase Gr 1-2, (%)",[4],(33.3%)
same,"Decreased appetite Gr 1-2, (%)",[4],(16.7%)
same,"Fatigue Gr 1-2, (%)",[4],(50.0%)
same,"Headache Gr 1-2, (%)",[4],(16.7%)
same,"Nausea Gr 1-2, (%)",[4],(50.0%)
same,"Neutropenia Gr 3, (%)",[4],(16.7%)
same,"Neutropenia Gr 4, (%)",[4],(16.7%)
same,"Vomiting Gr 1-2, (%)",[4],(16.7%)
same,"ALT increase Gr 1-2, (%)",[5],(66.7%)
same,"ALT increase Gr 4, (%)",[5],(33.3%)
same,"AST increase Gr 1-2, (%)",[5],(33.3%)
same,"AST increase Gr 4, (%)",[5],(33.3%)
same,"Anemia Gr 1-2, (%)",[5],(33.3%)
same,"Anemia Gr 3, (%)",[5],(66.7%)
same,"CPK increase Gr 1-2, (%)",[5],(66.7%)
same,"Fatigue Gr 1-2, (%)",[5],(33.3%)
same,"Febrile neutropenia Gr 4, (%)",[5],(33.3%)
same,"Neutropenia Gr 1-2, (%)",[5],(33.3%)
same,"Neutropenia Gr 3, (%)",[5],(33.3%)
same,"Neutropenia Gr 4, (%)",[5],(33.3%)
same,recommended dose (RD),"Schedule B, on D1",4.5 mg/n^2
same,tolerability at the RDs,patients with advanced solid tumors,well tolerated
